Measured values from patent US20240122876A1, “COMPOSITIONS AND METHODS FOR THE TREATMENT OF OCULAR DISORDERS” (Case Western Reserve University, priority 2021, published 2024).
Where “and” joins values, the source holds several entries; their conditions need not be identical. Equal values may be shown once. Entries after “also recorded” stand apart in the source; their conditions may differ.

Experiments:
RPE65 = RPE65 (Bos taurus (Bovine), UniProt Q28175); experiment: RPE65 retinoid isomerase activity assay (11-cis-retinol production by bovine RPE microsomes); format: biochemical; conditions: for IC50: inhibition of RPE65-mediated isomerization, decline in 11-cis-retinol production, bovine RPE microsomes
Description: After incubation at room temperature for 5 min, the resulting mixture was mixed with half microliter of all-trans-retinol (5 mM) in DMF, and then incubated at 37° C. for 1 h. The reaction was quenched by adding 400 μL of methanol (Fisher Chemical, Fair Lawn, NJ), and the products were extracted with 400 μL of hexanes.

[1] = Quantification of primary amine compound levels in serum and eyes of mice after intraperitoneal treatment (LC-MS/MS); format: in vivo; conditions: mouse, 380 nmol i.p.; for initial plasma (serum) level: 3 h
Description: Eight weeks old BL/6J mice were treated with 380 nmol visual cycle modulator 24, 49, 57, 58, 59 or emixustat in DMSO (50 μL) by intraperitoneal injection, and sacrificed at 3 h, 1 day, or 7 days later. Blood and eyeball samples were collected immediately. After clotting at room temperature for 30 min, the blood samples were centrifuged for 10 minutes at 17,000 g in a temperature-controlled benchtop centrifuge (Eppendorf AG). Each serum sample (100 μL) was carefully removed to avoid disturbing loose clots, precipitated with […] of pre-cooled methanol, and centrifuged at 17,000 g for 15 min at 4° C. The supernatant was carefully transferred to a SpinX centrifuge tube filter with a 0.45 μm cellulose acetate membrane (Costar, Salt Lake City, UT), and centrifuged at 7,000 g for 2 min. Filtered samples were dried under vacuum, reconstituted in 100 μL 50% methanol/water, and centrifuged at 17,000 g for 15 min at 4° C. The resulting supernatants were ready for Liquid Chromatography/Mass Spectrometry analyses. The two eyeballs from each mouse were homogenized in acetonitrile (2×800 μL). The resulting mixture was centrifuged at 17,000 g for 15 min at 4° C. The supernatant was dried under vacuum, reconstituted in 100 μl 50% methanol/water, and centrifuged at 17,000 g for 15 min at 4° C. Twenty microliters of the supernatant extracted from serum or eye samples was injected into an Ultimate 3000 HPLC system coupled with LXQ mass spectrometer (ThermoFisher Scientific, Waltham, MA) with an electrospray ionization unit.

[2] = RPE65 inhibition, ratio of IC50

Chain of RPE65 (Q28175 whole entry): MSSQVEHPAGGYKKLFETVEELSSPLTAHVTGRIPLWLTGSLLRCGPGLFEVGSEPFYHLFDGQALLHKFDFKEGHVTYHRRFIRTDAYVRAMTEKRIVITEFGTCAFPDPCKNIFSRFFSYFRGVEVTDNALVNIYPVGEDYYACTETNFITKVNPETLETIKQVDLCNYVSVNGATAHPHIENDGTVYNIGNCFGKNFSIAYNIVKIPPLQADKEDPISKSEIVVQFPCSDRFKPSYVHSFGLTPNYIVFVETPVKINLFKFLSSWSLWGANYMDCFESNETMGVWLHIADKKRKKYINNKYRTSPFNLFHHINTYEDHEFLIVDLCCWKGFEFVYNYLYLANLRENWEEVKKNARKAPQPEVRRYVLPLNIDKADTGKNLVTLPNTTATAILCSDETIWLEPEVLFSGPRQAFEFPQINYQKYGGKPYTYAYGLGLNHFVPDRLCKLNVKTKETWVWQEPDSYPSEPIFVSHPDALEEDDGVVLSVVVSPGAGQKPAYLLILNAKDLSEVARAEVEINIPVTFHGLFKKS

Row | SMILES | IC50 (RPE65) | other results
1 | CCCC(CCC)COc1cc(F)cc(C(O)CCN)c1 (racemic) [Compound 25, (S/R)-3-amino-1-(3-fluoro-5-((2-propylpentyl)oxy)phenyl)propan-1-ol] | 295 ± 132 nM | –
2 | CCCC(CCC)COc1cc(F)cc(C(O)CCN)c1 (racemic) [Compound 26, (S/R)-3-amino-1-(3-fluoro-5-((2-propylpentyl)oxy)phenyl)propan-1-ol] | 184 ± 24 nM | –
3 | CCCC(CCC)COc1ccc(F)c(C(O)CCN)c1 (racemic) [Compound 27, (S/R)-3-amino-1-(2-fluoro-5-((2-propylpentyl)oxy)phenyl)propan-1-ol] | 157 ± 24 nM | –
4 | CCCC(CCC)COc1ccc(F)c(C(O)CCN)c1 (racemic) [Compound 28, (S/R)-3-amino-1-(2-fluoro-5-((2-propylpentyl)oxy)phenyl)propan-1-ol] | 132 ± 19 nM | –
5 | CCCC(CCC)COc1cccc([C@H](O)CCN)c1 [(R)-MB-004, reference compound] | 106 ± 16 nM | –
6 | CCCC(CCC)COc1cc([C@@H](O)CCN)ccc1F [Compound 23, (S)-3-Amino-1-(4-fluoro-3-((2-propylpentyl)oxy)phenyl)propan-1-ol] | 177 ± 11 nM | –
7 | CCCC(CCC)COc1cc([C@H](O)CCN)ccc1F [Compound 24, (R)-3-Amino-1-(4-fluoro-3-((2-propylpentyl)oxy)phenyl)propan-1-ol] | 50 ± 9 nM | inhibitory potency / IC50 relative to (R)-MB-004 (RPE65; [2]): twice; also recorded: approximately two-fold lower; inhibitory potency relative to racemic emixustat (RPE65; [2]): 3 times; distribution within ocular tissue [1]: poorest distribution within ocular tissue; plasma half-life [1]: longer plasma half-life; initial plasma (serum) level [1]: highest initial plasma levels
8 | CC1=C(COc2cc(F)cc(C(O)CCN)c2)C(C)(C)CCC1 (stereo not shown) [Compound 54, 3-amino-1-(3-fluoro-5-((2,6,6-trimethylcyclohex-1-en-1-yl)methoxy)phenyl)propan-1-ol] | 292 ± 89 nM | –

Further lines, with some results ahead:

Row | IC50 (RPE65) | SMILES | other results
9 | 287 ± 283 nM | CCCC(CCC)COc1cccc(C(O)CCN)c1F (racemic) [Compound 29, (S/R)-3-amino-1-(2-fluoro-3-((2-propylpentyl)oxy)phenyl)propan-1-ol] | –
10 | 274 ± 47 nM | CCCC(CCC)COc1cccc(C(O)CCN)c1F (racemic) [Compound 30, (S/R)-3-amino-1-(2-fluoro-3-((2-propylpentyl)oxy)phenyl)propan-1-ol] | –
11 | 323 ± 145 nM | CC1=C(COc2cccc([C@H](O)CCN)c2)C(C)(C)CCC1 [(R)-MB-001, reference compound] | –
12 | 95 ± 5 nM | NCCC(O)c1ccc(F)c(OCC2CCCCC2)c1 (stereo not shown) [Compound 49, 3-amino-1-(3-(cyclohexylmethoxy)-4-fluorophenyl)propan-1-ol] | distribution within ocular tissue [1]: poorest distribution within ocular tissue; initial plasma (serum) level [1]: highest initial plasma levels
13 | 201 ± 23 nM | NCCC(O)c1cc(F)cc(OCC2CCCCC2)c1 (stereo not shown) [Compound 50, 3-amino-1-(3-(cyclohexylmethoxy)-5-fluorophenyl)propan-1-ol] | –
14 | 145 ± 9 nM | NCCC(O)c1cc(OCC2CCCCC2)ccc1F (stereo not shown) [Compound 51, 3-amino-1-(5-(cyclohexylmethoxy)-2-fluorophenyl)propan-1-ol] | –
15 | 358 ± 42 nM | NCCC(O)c1cccc(OCC2CCCCC2)c1F (stereo not shown) [Compound 52, 3-amino-1-(3-(cyclohexylmethoxy)-2-fluorophenyl)propan-1-ol] | –
16 | 284 ± 20 nM | CC1=C(COc2cc(C(O)CCN)ccc2F)C(C)(C)CCC1 (stereo not shown) [Compound 53, 3-amino-1-(4-fluoro-3-((2,6,6-trimethylcyclohex-1-en-1-yl)methoxy)phenyl)propan-1-ol] | –
17 | 124 ± 21 nM | CC1=C(COc2ccc(F)c(C(O)CCN)c2)C(C)(C)CCC1 (stereo not shown) [Compound 55, 3-amino-1-(2-fluoro-5-((2,6,6-trimethylcyclohex-1-en-1-yl)methoxy)phenyl)propan-1-ol] | –
18 | 169 ± 13 nM | CC1=C(COc2cccc(C(O)CCN)c2F)C(C)(C)CCC1 (stereo not shown) [Compound 56, 3-amino-1-(2-fluoro-3-((2,6,6-trimethylcyclohex-1-en-1-yl)methoxy)phenyl)propan-1-ol] | –
19 | 100 nM and 103 nM | NCCC(O)c1cccc(OCC2CCC(F)(F)CC2)c1 (stereo not shown) [Compound 57, 3-amino-1-(3-((4,4-difluorocyclohexyl)methoxy)phenyl) propan-1-ol] | distribution within ocular tissue [1]: further enhanced ocular distribution
20 | 269 ± 40 nM | [2H]C([2H])(N)CC(O)c1cccc(OCC2CCC(F)(F)CC2)c1 (stereo not shown) [Compound 59, 3-amino-1-(3-((4,4-difluorocyclohexyl)methoxy)phenyl)propan-3,3-d2-1-ol] | –
